Laboratory results reported in US20260137736A1, “PROBIOTIC LACTOBACILLUS STRAIN COMPOSITIONS AND APPLICATIONS THEREFOR INCLUDING FOR LEAKY GUT AND INFLAMMATION” (priority 2021, published 2026).

Assays:
L. reuteri growth [1] = test: Antimicrobial susceptibility profiling, broth microdilution MIC against clinically relevant antibiotics (EFSA cut offs); assay type: cell-based; set-up: unit not given here; details: for Minimum inhibitory concentration (MIC), L. reuteri PTA-126787: strain L. reuteri PTA-126787, two biological replicates; for Minimum inhibitory concentration (MIC), L. reuteri PTA-126788: strain L. reuteri PTA-126788, two biological replicates
Experimental: Antimicrobial susceptibility testing was performed using broth microdilution method, using LSB medium (Mueller Hinton broth containing 5% horse blood) following Clinical and Laboratory Standards Institute (CLSI, 28th edition) guidelines. Two-fold dilutions of the clinically relevant antibiotics (Clindamycin, Chloramphenicol, Erythromycin, Gentamicin, Kanamycin, Streptomycin, Tetracycline and Ampicillin, all purchased from Sigma Aldrich) were prepared in LSB medium. Approximately, 50 μL of 1×10^5 CFUs/mL of the L. reuteri cells were added into each well. “No antibiotic” and “medium” alone controls were included. […], Pseudomonas aeruginosa ATCC 27853, Staphylococcus aureus ATCC 29213, Enterococcus faecalis ATCC 29212, Streptococcus pneumonia ATCC 49619 and Lacticaseibacillus paracasei ATCC 334 were used as quality control organisms. The plates were incubated for 24-48 hours under microaerophilic conditions. […] The strains were classified as susceptible or resistant using the microbiological cut offs established by EFSA (35).

L. reuteri growth [2] = details: EFSA guideline species cut-off for L. reuteri; cited from earlier work

Molecule	Minimum inhibitory concentration (MIC), L. reuteri PTA-126787 (L. reuteri growth [1])	Minimum inhibitory concentration (MIC), L. reuteri PTA-126788 (L. reuteri growth [1])	EFSA microbiological cut off values for L. reuteri (L. reuteri growth [2])
CC1(C)S[C@@H]2[C@H](NC(=O)[C@H](N)c3ccccc3)C(=O)N2[C@H]1C(=O)O [Ampicillin]	1	1	2
O=C(N[C@H](CO)[C@H](O)c1ccc([N+](=O)[O-])cc1)C(Cl)Cl [Chloramphenicol]	2	2	4
CCC[C@@H]1C[C@@H](C(=O)N[C@@H]([C@H]2O[C@H](SC)[C@H](O)[C@@H](O)[C@H]2O)[C@H](C)Cl)N(C)C1 [Clindamycin]	≥0.06	≥0.06	
CC[C@H]1OC(=O)[C@H](C)[C@@H](O[C@H]2C[C@@](C)(OC)[C@@H](O)[C@H](C)O2)[C@H](C)[C@@H](O[C@@H]2O[C@H](C)C[C@H](N(C)C)[C@H]2O)[C@](C)(O)C[C@@H](C)C(=O)[C@H](C)[C@@H](O)[C@]1(C)O [Erythromycin]	0.12	0.12	1
NC[C@H]1O[C@H](O[C@H]2[C@H](O)[C@@H](O[C@H]3O[C@H](CO)[C@@H](O)[C@H](N)[C@H]3O)[C@H](N)C[C@@H]2N)[C@H](O)[C@@H](O)[C@@H]1O [Kanamycin]	16	16	
[H]/N=C(/N)N[C@H]1[C@H](O)[C@@H](O)[C@H](O[C@@H]2O[C@@H](C)[C@](O)(C=O)[C@H]2O[C@@H]2O[C@@H](CO)[C@H](O)[C@@H](O)[C@@H]2NC)[C@@H](N/C(N)=N\[H])[C@@H]1O [Streptomycin]	8	8	64
CN(C)[C@@H]1C(O)=C(C(N)=O)C(=O)[C@@]2(O)C(O)=C3C(=O)c4c(O)cccc4[C@@](C)(O)[C@H]3C[C@@H]12 [Tetracycline]	32/64	32/64	
Gentamicin	1	1	8
